The test system of experiment [1] is Baf3 murine leukemia cells M351T. Put plainly: Blast cell count in nude mice implanted with Baf3 M351T cells. Particulars: Baf3M351T; Imatinib 10 mg/kg, AN019 20 mg/kg, AN024 20 mg/kg, oral gavage or ip from day 15; day 42. The experiment is classed as in vivo. From the text: Blood smears were obtained via the tail vein or via the femoral vein every 6th day and blast cells counted and graphically represented.
Abdominal swelling and decrease in activity was monitored daily, blood smear taken via the tail vein or the femoral vein every 6th day and H&E stained as per standard protocols. 42 days after implantation, mice were sacrificed and spleens harvested.
Blood from tail vein or the femoral vein was taken every 6th day from Baf3 cell implanted mice until day 42.
Nude mice were intraperitoneally implanted with Baf3 mutant cells (wt, T315I, M351T or E255K). […] Blood was drawn from the femoral vein or tail vein every 6th day and blast cell count determined and graphically represented.

In another experiment the test system is ZR71 breast cancer cells. Put plainly: In vitro angiogenic assay, ZR-71 conditioned media on human dermal endothelial cells. In kind it is cell-based. Particulars: ZR-71 cells, radiation status not specified. The procedure: (§1) The in vitro angiogenesis of 4910, 5310 and U87 glioma cells and MDAMB231 and ZR71 breast cancer cells in the presence of specified concentrations of compounds were determined as follows, cells (2×10^4/well) were seeded in 8-well chamber slides and were treated with various concentrations of test compounds. After a 24 h incubation period, the conditioned media was removed and added to a 4×10^4 human dermal endothelial cell (monolayer in 8-well chamber slides) and the human dermal endothelial cells were allowed to grow for 72 h. Cells were then fixed in 3.7% formaldehyde and stained with H&E and photographed.

The next experiment concerns 5310 glioma cells. Put plainly: In vitro angiogenic assay, 5310 conditioned media on human dermal endothelial cells. The experiment is classed as cell-based. Particulars: 5310 cells. The procedure:
as §1

Experiment [2] deals with AKT, ERK and Pi3k in 4910 glioma cells. Put plainly: Western blot analysis, 4910. To be noted: 24 h. In kind it is cell-based, human. The procedure:
(§2) Western blot analysis of 4910, 5310 and U87 glioma cells and MDAMB231 and ZR71 breast cancer cells in the presence of specified concentrations of compounds were assessed as per standard protocols. Cells were treated with AN019, AN024 or Temozolomide at the specified concentrations. 24 h after treatment, cells were collected and cell lysates extracted. Equal quantities of proteins were fractionated by SDS-PAGE. The fractionated proteins were blotted on to nylon membranes and immunoprobed for AKT, ERK and Pi3k. Breast cancer cell protein isolates were additionally immunoprobed for EGFR, ErbB1, ErbB2 and ErbB3.
Background: In western blotting, separated proteins are transferred to a membrane and probed.

Experiment [3] relates to AKT, ERK and Pi3k in U87 glioma cells. Put plainly: Western blot analysis, U87. In kind it is cell-based. Particulars: 24 h. The procedure: as §2
In experiment [4] the test system is 4910 human glioma xenograft cells. Put plainly: Glioma radiation studies, intracranial tumours. The experiment is classed as in vivo, nude mice. The procedure:
Nude mice were intracranially implanted with 4910 human glioma xenograft cells (1×10^6 cells) intracranially. Ten days after implantation mice were treated with AN019, AN024 or temozolomide with or without radiation (5 Gy/week). The experiment was terminated at day 40 post implantation.

Molecules are shown by their SMILES.

As for `Cc1ccc(NC(=O)c2cccc(S(=O)(=O)C(F)(F)F)c2)cc1Nc1nccc(-c2cccnc2)n1` [AN024, (3-trifluoromethylsulfonyl)-N-[4-methyl-3-(4-pyridin-3yl-pyrimidin-2ylamino)-phenyl]-benzamide], the “blast cell count in blood smears” value in experiment [1] is given as “significant decrease in blast cell count”. Also, the inhibition of angiogenesis entry in the experiment with ZR71 breast cancer cells was “complete inhibition of angiogenesis”; with 5310 glioma cells (after radiation treatment) it was “angiogenesis further inhibited”; in the experiment with 5310 glioma cells (control conditions (without radiation)), “inhibition of angiogenesis was seen”. The AKT levels result in experiment [2] (4910, after radiation) is given as “decrease in AKT levels was enhanced after radiation”; in experiment [2] (4910, without radiation), “decrease in AKT levels”. The ERK levels entry in experiment [3] (U87, after radiation) is on record as “decrease was enhanced after radiation”; in experiment [3] (U87, without radiation), “slight decrease in ERK levels”. The “intracranial tumours (size, appearance)” value in experiment [4] (with radiation (5 Gy/week)) was “well defined surgically respectable tumours”; in experiment [4] (without radiation), “well defined and not showing diffuse edges”.

Values taken from patent publication US7939541B2, “Intermediates and a process employing the intermediates for the preparation of (3-trifluoromethylsulfonyl)-N-[4-methyl-3-(4-pyridin-3yl-pyrimidin-2ylamino)-phenyl]-benzamide” (Natco Pharma Limited, priority 2004, dated 2011).
